Columns and labels:
Type in all cases: in vivo
[1] = tested on: Arabidopsis thaliana (Col-O); assay: Seed yield of Arabidopsis thaliana at different times of treatment (Examples 5 and 6); conditions: 1 mM; for Seed yield: harvested on 82nd day, 22° C.; for Seed yield Ratio: 82nd day, Comparative Example 8 (distilled water) set to 1
Protocol: The same operation as in Example 2 was carried out.
The same operation as in Example 1 was carried out except that the room temperature was set at 22° C. and L-(+)-ergothioneine was added 2 weeks after seeding, more specifically on the 8th, 10th, 12th, and 14th days.
On the 82nd day after seeding, seeds were harvested, and the seed yield (mg/plant) was measured.
The same operation as in Example 5 was carried out except that L-(+)-ergothioneine was added 4 weeks after seeding, more specifically on the 22nd, 24th, 26th, and 28th days.
The same operation as in Example 5 was carried out except that oxidized glutathione was used in place of L-(+)-ergothioneine in the aqueous solution and added 4 weeks after seeding, more specifically on the 22nd, 24th, 26th, and 28th days.
The same operation as in Example 5 was carried out except that the L-(+)-ergothioneine aqueous solution was replaced with distilled water.
(§1) The ratio of “grass height” and “flowers and fruits” for Example 1, Comparative Example 1, and Comparative Example 2 to the results of Comparative Example 2 are shown in Table 1 as “Ratio”, respectively. The “seed yield” for Examples 2 to 4 and Comparative Examples 3 to 6 are shown as “Ratio” in Table 2, where the value for Comparative Example 6 is set to 1. The “seed yield” for Examples 5 and 6 and Comparative Examples 7 and 8 are shown as “Ratio” in Table 3, where the value for Comparative Example 8 is set to 1.

[2] = tested on: Arabidopsis thaliana (Col-O); assay: Seed yield of Arabidopsis thaliana at different compound concentrations (Examples 2 to 4); conditions: for Seed yield Ratio: 85th day, Comparative Example 6 (distilled water) set to 1; for Seed yield: harvested on 85th day after seeding, 22° C.
Protocol: One individual Arabidopsis thaliana (Col-O) was sown in a plastic pot having a diameter of 60 mm and a height of 55 mm. Plastic deep dishes each having a diameter of 160 mm and a height of 28 mm were prepared, and six pots were respectively placed therein. As soil, 45 mL of vermiculite, 22.5 mL of granular soil (JA Granular Kumiai Synthetic Soil No. 3), and 22.5 mL of vermiculite were placed in each pot in this order.
The procedure was the same as in Example 1, except that the room temperature was set to 22° C.
On the 85th day after seeding, seeds were harvested, and the seed yield (mg/plant) was measured.
The same operation as in Example 2 was carried out except that the concentration of L-(+)-ergothioneine aqueous solution was set to 0.1 mM.
The same operation as in Example 2 was carried out except that the concentration of L-(+)-ergothioneine aqueous solution was set to 0.01 mM. […]
The same operation as in Example 2 was carried out except that the L-(+)-ergothioneine aqueous solution was replaced with distilled water.
as §1

[3] = tested on: Arabidopsis thaliana (Col-O); assay: Plant height and number of flowers and fruits of Arabidopsis thaliana after treatment via water supply (Example 1); conditions: for Flower and Fruit Ratio / Plant height Ratio: 1 mM, 37th day after seeding, ratio to Comparative Example 2 (distilled water); for Flower and Fruit / Plant height: 50 mL of 1 mM aqueous solution on 21st, 23rd, 25th, 27th days after seeding, measured on 37th day, 25° C.
Protocol: Arabidopsis thaliana (Col-O) was sown in plastic pots having a width of 65 mm, a depth of 65 mm, and a height of 70 mm, three individuals per pot. Plastic deep dishes each having a diameter of 160 mm and a height of 28 mm were prepared, and three pots were respectively placed therein. As soil, 100 mL of vermiculite, 50 mL of granular soil (JA Granular Kumiai Synthetic Soil No. 3), and 50 mL of vermiculite were placed in each pot in this order.
In a thermostatic chamber set at room temperature of 25° C., the light period was 16 hours and the dark period was 8 hours. The light conditions were set using a fluorescent lamp (PLANT FLEC, 40 W LED fluorescent lamp for plant growth, electric bulb color, available from Nippon Medical and Chemical Instruments Co., Ltd.) so that the light intensity was 5000 lx in the central part under the fluorescent lamp irradiation. Water supply was done from the bottom, and the water level was set at about 5 mm. Ergothioneine treatment was started 4 weeks after seeding. More specifically, on the 21st, 23rd, 25th, and 27th days after seeding, 50 mL of a 1 mM L-(+)-ergothioneine (available from Cayman Chemical) aqueous solution was added instead of water supply.
On the 37th day after seeding, the plant height (cm) and the number of flowers and fruits per Arabidopsis thalianawere measured.
The same operation as in Example 1 was carried out except that L-(+)-ergothioneine in the aqueous solution was replaced with oxidized glutathione (available from Wako Pure Chemical Industries, Ltd.).
The same operation as in Example 1 was carried out except that the L-(+)-ergothioneine aqueous solution was replaced with distilled water.
as §1

[4] = time of treatment 4 weeks after seeding (22nd, 24th, 26th, 28th days)
[5] = time of treatment 4 weeks after seeding

Row | Compound | Seed yield [1, 4] | Seed yield Ratio [1, 5] | Seed yield Ratio ([2]; compound concentration 1 mM) | Seed yield ([2]; compound concentration 1 mM) | Flower and Fruit Ratio [3] | Plant height Ratio [3] | Flower and Fruit [3] | Plant height [3] | Seed yield ([1]; time of treatment 2 weeks after seeding (8th, 10th, 12th, 14th days)) | Seed yield Ratio ([1]; time of treatment 2 weeks after seeding) | Seed yield Ratio ([2]; compound concentration 0.01 mM) | Seed yield ([2]; compound concentration 0.01 mM) | Seed yield Ratio ([2]; compound concentration 0.1 mM) | Seed yield ([2]; compound concentration 0.1 mM)
1 | oxidized glutathione [reference compound] | 92 mg/plant | 1.3 | 1.2 | 100 mg/plant | 1.5 | 1.1 | 22 Number/plant | 24 cm | – | – | – | – | – | –
2 | O=C(O)[C@@H]1CCCN1 [L-proline, reference compound] | – | – | 1.2 | 102 mg/plant | – | – | – | – | – | – | – | – | – | –
3 | N[C@@H](CCC(=O)O)C(=O)O [L-glutamic acid, reference compound] | – | – | 1.0 | 90 mg/plant | – | – | – | – | – | – | – | – | – | –
4 | C[N+](C)(C)[C@@H](Cc1c[nH]c(=S)[nH]1)C(=O)[O-] [L-(+)-ergothioneine] | 114 mg/plant | 1.7 | 1.7 | 142 mg/plant | 1.7 | 1.3 | 26 Number/plant | 29 cm | 140 mg/plant | 2.0 | 1.3 | 109 mg/plant | 1.5 | 130 mg/plant

From US20220281822A1, “PLANT GROWTH REGULATOR AND METHOD FOR PROMOTING PLANT GROWTH” (Kureha Corporation, priority 2019, published 2022)
